How the values were obtained:
[1] = system: OP91 in HeLa TRex Flp-In cells; experiment: Steady state OP91 (model MLP) levels on co-expression, quantitative western blotting; format: cell-based; details: co-expression of SGTA-V5 compared with K160E/R164E mutant or PEX19 control; normalised to tubulin; n = 3; 24 h transfection, 24 h induction
Excerpt: However, the ability of exogenous SGTA to enhance steady state MLP levels is offset when key residues of the carboxylate clamp, located in its TPR domain, are mutated. […] These finding are consistent with the proposal that a TPR based interaction of exogenous SGTA contributes to its effects on steady state MLP levels. […]
Figure 5 The SGTA-Rpn13 interaction alters steady state levels of a model MLP. […] Cells were then harvested directly into sample buffer and analysed by western blotting using primary antibodies to the N-terminus of opsin (OP91), the V5 tag (PEX19 and SGTA) or tubulin (loading control) in combination with secondary antibodies labelled with infrared dyes (LiCor) in order to produce quantitative signals as previously described. (B) OP91 signals were quantified (see Materials and Methods) and normalised to the tubulin loading control, values show standard errors for n = 3. […] (F) OP91 signals were quantified as described for (B), values show standard errors for n = 3. […]

[2] = system: OP91 in HeLa TRex Flp-In cells; details: overexpression of exogenous SGTA, model MLPs including OP91; cited from earlier work
Excerpt: However, the ability of exogenous SGTA to enhance steady state MLP levels is offset when key residues of the carboxylate clamp, located in its TPR domain, are mutated. We recapitulated this experiment ...

[3] = molecular target: T1, TPR domain of SGTA (SGTA_TPR) (Homo sapiens, UniProt O43765); experiment: Paramagnetic relaxation enhancement (PRE) of 15N-labelled SGTA_TPR by MTSL labelled K398C Rpn13_260-407; format: binding; details: MTSL at K398C; 15N-labelled SGTA_TPR to spin labelled Rpn13 1:1.2; pH 6.0; residues Met-102, Lys-103, Glu-105, Lys-137, Ser-170, Asn-173, Ser-197, Lys-200, Ile-201, Glu-203, Ser-211
T1 construct: thioredoxin A (TxA) fusion (N, cleaved yes); hexahistidine tag (N, cleaved yes); made in house; host or cells: E. coli BL21(DE3) Rosetta
T1 sequence (O43765 84-211): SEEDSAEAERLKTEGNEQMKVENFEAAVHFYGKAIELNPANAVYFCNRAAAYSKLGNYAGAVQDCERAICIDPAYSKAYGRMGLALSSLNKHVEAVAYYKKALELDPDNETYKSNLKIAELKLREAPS
Experimental: Using CSP experiments combined with available mutagenesis data, an initial model of a 1:1 complex was generated by a HADDOCK based semi-rigid, data-driven approach using the DMSLD pentapeptide coordinates from the solution NMR structure of Rpn13 (PDB accession code: 2KR0) and the crystal structure of SGTA_TPR (PDB accession code: 2VYI). The three lowest energy HADDOCK clusters of the SGTA_TPR/DMSLD complex were analysed (Figure S7 and Table S1). […] Proximity dependent line broadening of ^15N-labelled SGTA_TPR backbone amide signals was monitored for intermolecular paramagnetic relaxation enhancement (PRE) effects upon addition of MTSL labelled K398C Rpn13_260-407 (Fig. 4B). Significant line broadening effects were observed upon binding in backbone amide peaks of SGTA_TPR residues Met-102, Lys-103, Glu-105, Lys-137, Ser-170, Asn-173, Ser-197, Lys-200, Ile-201, Glu-203, Ser-211, all present on the lower edge of its concave surface lining the entry to the central groove (Fig. 4C,D).
The Rpn13 C-terminal residue Lys 398 was mutated to a cysteine for paramagnetic spin labelling studies. Mutant Rpn13_260-407 was treated with excess TCEP for 2 hours to ensure cysteines were reduced, followed by dialysis against 10 mM potassium phosphate pH 6.0, 100 mM NaCl buffer to remove excess TCEP. […]

Row | Molecule | change in steady state OP91 level [1] | steady state MLP levels, earlier studies [2] | distance of paramagnetic probe from SGTA_TPR residues with significant line broadening [3] [Å]
1 | SGTA-V5: exogenous V5-tagged SGTA overexpressed from plasmid | three-fold increase | typically increases the steady-state levels of model MLPs | –
2 | K398C Rpn13_260-407: Rpn13_260-407 K398C mutant carrying site-directed paramagnetic spin-label (MTSL) (protein, UniProt Q16186 260-407, looked up, variant K398C, MTSL spin label) QPIQLSDLQSILATMNVPAGPAGGQQVDLASVLTPEIMAPILANADVQERLLPYLPSGESLPQTADEIQNTLTSPQFQQALGMFSAALASGQLGPLMCQFGLPAEAVEAANKGDVEAFAKAMQNNAKPEQKEGDTKDKCDEEEDMSLD | – | – | ≤ 20

Reference: PMC5101480 (Scientific Reports, 2016)
